This assay has as its system recombinant guanylate cyclase reporter cell line. Kind of assay: Effect on a recombinant guanylate cyclase reporter cell line. The settings on record: in some cases mean values from individual determinations, read-out: MEC (minimum effective concentration). Format: cell-based. The protocol: B-2. Effect on a Recombinant Guanylate Cyclase Reporter Cell Line
The cellular activity of the compounds according to the invention is determined using a recombinant guanylate cyclase reporter cell line, as described in F. Wunder et al., Anal. Biochem. 339, 104-112 (2005).
Representative MEC values (MEC=minimum effective concentration) for the compounds of the invention are shown in the table below (in some cases as mean values from individual determinations): […]
For `O=C(NC1(c2ccc(F)cc2)CC1)c1cnc2c(OCc3c(F)cccc3F)cccc2c1` [Example 39, 8-[(2,6-Difluorobenzyl)oxy]-N-[1-(4-fluorophenyl)cyclopropyl]quinoline-3-carboxamide], the minimal effective concentration amounted to 1 µM.

Turning to `CC[C@](C)(N)CNC(=O)c1cnc2c(OCc3c(F)cccc3F)cccc2c1` [Example 41, N-[(2S)-2-Amino-2-methylbutyl]-8-[(2,6-difluorobenzyl)oxy]quinoline-3-carboxamide], the minimal effective concentration came out at 10 µM.

`N#C[C@H]1CC[C@H](CNC(=O)c2ccnc3c(OCc4c(F)cccc4F)cccc23)CC1` [Example 44]: the minimal effective concentration amounted to 10 µM.

For the compound `CCCC[C@H](CO)NC(=O)c1cc(C)nc2c(OCc3c(F)cccc3F)cccc12` [Example 46, ent-8-[(2,6-Difluorobenzyl)oxy]-N-[(2R)-1-hydroxyhexan-2-yl]-2-methylquinoline-4-carboxamide (Enantiomer)], the minimal effective concentration came to 2 µM.

As for `Cc1cc(OCc2c(F)cccc2F)c2nccc(C(=O)N[C@@](C)(CO)c3nnc(C)s3)c2c1` [Example 48, ent-8-[(2,6-Difluorobenzyl)oxy]-N-[(2S)-1-hydroxy-2-(5-methyl-1,3,4-thiadiazol-2-yl)propan-2-yl]-6-methylquinoline-4-carboxamide], the minimal effective concentration amounted to 3 µM.

For the origin of these results see patent US20170233345A1, “SUBSTITUTED QUINOLINE-4-CARBOXAMIDES AND USE THEREOF” (BAYER PHARMA AKTIENGESELLSCHAFT, priority 2014, published 2017).
